Measurements reported in patent publication US10159668B2, “Pharmaceutical composition for inhibiting alpha-glucosidase” (Tamkang University, priority 2017, dated 2018).

What was measured:
[1] = molecular target: rat α-glucosidase (Rat aG); assay: Test of IC50: inhibitive activity on rat α-glucosidase; type: biochemical; conditions: Embodiment 2, Table 2, single components
Excerpt: (§1) Testing and comparing the inhibitive activity Max % and IC50 of the composition and a known diabetes drug A (α-glucosidase inhibitor) to rat α-glucosidase (abbreviated as Rat aG) and yeast α-glucosidase (abbreviated as Yeast aG), individually. IC50 means the concentration of the inhibitor to achieve 50% inhibition rate.
(§2) The present embodiment tests IC50 of adenine, 3-hydroxy-dl-proline, nicotinic acid, (3,6-dioxo-piperazin-2-yl)-acetic acid amide, 2-ethylhexyl heptanoate, and the diabetes drug A to Rat aG and Yeast aG, individually.

[2] = molecular target: yeast α-glucosidase (Yeast aG); type: biochemical; conditions: Embodiment 2, Table 2, single components
Excerpt: as §1, §2

Rat aGI (IC50 to Rat aG) [1] [µg/mL] | Yeast aGI (IC50 to Yeast aG) [2] [µg/mL] | Compound
105 | 4.0 | CCCCCCC(=O)OCC(CC)CCCC (stereo not shown) [2-ethylhexyl heptanoate]
– | 21.5 | Nc1ncnc2nc[nH]c12 [Adenine]
67 | 517 | O=C(O)c1cccnc1 [Nicotinic acid]
105 | 4.0 | NC(=O)CC1NC(=O)CNC1=O (stereo not shown) [(3,6-dioxo-piperazin-2-yl)-acetic acid amide]
